Assays:
Type in all cases: cell-based
SCC-25 tumor cells [1] = assay: Cell cycle phase and DNA fragmentation analysis (flow cytometry); conditions: 24 h, IsCT-P and AC-AFPK-IsCT1 at IC50, others 100 µM
Experimental: Figure 3 Analysis of cell cycle phases following a 24 h treatment with synthetic analogs of IsCT1 peptides. The indicated cells were treated at the IC50 values obtained for the IsCT-P and AC-AFPK-IsCT1 peptides and at a concentration of 100 µM for the other peptides. (a) Representative histograms of cell distribution across cell cycle phases; (b) bar graph showing the correlation of the effect on cell cycle and fragmented DNA, expressed as the mean ± SD of three independent SCC-9 tumor cell experiments; (c) bar graph showing the correlation of the effect on cell cycle and fragmented DNA, expressed as the mean ± SD of three independent experiments on SCC-25 tumor cells; (d) bar graph showing the correlation of the effect on cell cycle and fragmented DNA, expressed as the mean ± SD of three independent experiments of normal FN1 cells; (e) bar graph showing the correlation of the effect on cell cycle and fragmented DNA, expressed as the mean ± SD of three independent experiments of normal J774 cells. Statistical differences were obtained using ANOVA and Tukey–Kramer multiple comparison tests. * p < 0.05, ** p < 0.01, and *** p < 0.001 denote significance. ns = not significant.
Tumor (SSC-9 and SSC-25) and normal cells (FN1 and J-774) were subjected to treatment for 24 h at the peptides’ IC50 concentrations. Treated and control cells were trypsinized and centrifuged at 1200 rpm for 5 min. The resulting pellet was resuspended in 1 mL of cold buffer, followed by the addition of 3 mL of absolute ethanol. Samples were stored at −20 °C for 24 h. The samples were then centrifuged at 1500 rpm for 10 min and resuspended in 200 μL of FACS buffer containing 0.1% Triton X-100 (Sigma-Aldrich, St. Louis, MO, USA), 50 μg/mL propidium iodide (Sigma-Aldrich), and 1 µL of RNAse (200×). This mixture was kept at room temperature and protected from light for 30 min. The samples were then transferred to cytometry tubes and analyzed using a FACScanto flow cytometer (BD) with 10,000 events, and histograms were acquired and analyzed using ModFit LT 5.0 software.

SCC-25 tumor cells [2] = assay: Mitochondrial potential by confocal microscopy (MitoRed/DAPI); conditions: 24 h, IsCT-P and AC-AFPK-IsCT1 at IC50, others 100 µM, MitoRed, DAPI
Experimental: (§1) Figure 5 Photomicrographs of tongue squamous cell carcinoma tumor cells (SCC-9 and SCC-25) and macrophages (J774), with mitochondria stained red (MitoRED) and nuclei stained blue (DAPI), analyzed using confocal laser microscopy. The indicated cells were treated at the IC50 values obtained for the IsCT-P and AC-AFPK-IsCT1 peptides and at a concentration of 100 µM for the other peptides for a period of 24 h.
(§2) For the confocal microscopy ana.lysis, tumor and normal cells were cultured in 24-well plates containing round coverslips with RPMI and Leibovitz medium, respectively, supplemented with 10% FBS and incubated with 5% CO2 at 37 °C for 24 h. Samples from the control and treated groups were subjected to the process of removing the culture medium and washing with RPMI medium. A total of 200 nML^−1 of MitoRed (Sigma-Aldrich, USA) was then added and the cells were incubated for 1 h in the dark at 37 °C. After incubation, the cells were washed with PBS, incubated with MitoRed, and fixed with 4% paraformaldehyde for 30 min. The cells were then washed with PBS and incubated. A total of 10 µL of VECTASHIELD® antifade with DAPI (Vector Laboratories, Burlingame, CA, USA) was used on the slide to promote the sealing and marking of the nucleus. The slides were stored in a closed place until the day of reading. Coverslips were placed on slides for observation under a confocal laser fluorescence microscope (Fluoview™ 300) and images were documented and analyzed.

SCC-9 tumor cells [3] = assay: as above; conditions: 24 h, IsCT-P and AC-AFPK-IsCT1 at IC50, others 100 µM, MitoRed, DAPI
Experimental: as §1, §2

SCC-25 tumor cells [4] = assay: CFSE-DA proliferation assay (flow cytometry); conditions: 24 h, IsCT-P and AC-AFPK-IsCT1 at IC50, other peptides at 100 µM, mean ± SD of three independent experiments
Experimental: (§3) Figure 2 Assessment of the cellular proliferative index was conducted using flow cytometry following a 24 h treatment with synthetic analogs of the IsCT1 peptide. The treatments were performed using the IC50 values obtained for the IsCT-P and AC-AFPK-IsCT1 peptides and at a concentration of 100 µM for the other peptides. (a) Representative histograms of the proliferative index were analyzed using WinMDI 5.0 software. Each color in the histogram represents a new cell population. (b) Bar graphs represent the mean ± SD of the proliferative index for SCC-9 tumor cells derived from three independent experiments. (c) Bar graphs display the mean ± SD of the proliferative index for SCC-25 tumor cells based on three independent experiments. (d) Bar graphs represent the mean ± SD of the proliferative index for normal FN1 cells from three independent experiments. (e) Bar graphs illustrate the mean ± SD of the proliferative index for normal J774 cells from three independent experiments. Statistical differences were determined using ANOVA and Tukey–Kramer multiple comparison tests. Significance levels are indicated as * p < 0.05, ** p < 0.01, and *** p < 0.001, with ‘ns’ denoting not significant.
(§4) Tumor (SSC-9 and SSC-25) and normal cells (FN1 and J-774) were plated in 24-well plates at a density of 10^5 cells/mL for 24 h. The treated and control groups were incubated with the carboxyfluorescein marker (CFSE-DA Thermo Fisher (Waltham, MA, USA), KITC34571). CFSE-DA was diluted in PBS + 0.1% human albumin and added to the cell-containing medium. After 24 h of treatment, the cells were trypsinized, transferred to a conical tube, and centrifuged at 1500 rpm for 5 min. The supernatant was discarded and the pellet was resuspended in 1 mL of 4% paraformaldehyde in PBS for 30 min. The cells were then centrifuged, the supernatant was discarded, and the pellet was resuspended in 200 μL of FACS buffer. Readings were performed on a FACScanto flow cytometer (BD, Franklin Lakes, NJ, USA) with the number of events set to 10,000 events, and histograms were acquired and analyzed using ModFit LT 5.0 software.

SCC-9 tumor cells [5] = assay: CFSE-DA proliferation assay (flow cytometry); conditions: 24 h, IsCT-P and AC-AFPK-IsCT1 at IC50, other peptides at 100 µM, mean ± SD of three independent experiments
Experimental: as §3, §4

Substance | fragmented DNA (SCC-25 tumor cells [1]) | change in mitochondrial electric potential (confocal) (SCC-25 tumor cells [2]) | change in mitochondrial electric potential (confocal) (SCC-9 tumor cells [3]) | decrease in the proliferative index (SCC-25 tumor cells [4]) | reduction in the proliferative index (SCC-9 tumor cells [5])
Ac-ALGKFWPKIKSLF-NH2 [AC-AFPK-IsCT1] | 16.5% | promoted a reduction in the mitochondrial electric potential | promoted a reduction in the mitochondrial electric potential | 40.9 ± 2.5% | 61.6 ± 1.7%
H-ILKKIWKPIKKLF-NH2 [IsCT-P] | 32.4% | promoted a reduction in the mitochondrial electric potential | promoted a reduction in the mitochondrial electric potential | 61.1 ± 2.8% | 61.8 ± 8.7%

Source: publication PMC11478212, “Antitumoral and Antiproliferative Potential of Synthetic Derivatives of Scorpion Peptide IsCT1 in an Oral Cavity Squamous Carcinoma Model” (Molecules, 2024)
